The test system of experiment [1] is Staphylococcus aureus (S. aureus) 11540 strain. Nature of the experiment: standard microdilution assay to determine minimum inhibitory concentrations (MICs), S. aureus. In kind it is cell-based. How it is done:
(§1) The in vitro activity of the compounds of the present disclosure can be determined. Antimicrobial testing is typically performed to determine the minimum inhibitory concentration (MIC). Minimum inhibitory concentrations (MICs) are determined by the microdilution method in a final volume of 100 μl according to protocols outlined by The Clinical and Laboratory Standards Institute (CLSI). Performance standards for reference strains are assessed within the same experimental design to maintain quality control. See, for example, Clinical Laboratory Standards Institute: Methods for dilution antimicrobial susceptibility tests for bacteria that grow aerobically M7-A8. Approved Standard-Eighth Edition. Wayne, PA: CLSI; December 2008: and Clinical Laboratory Standards Institute: Performance Standards for Antimicrobial Susceptibility Testing M100-S20; Approved Standard-Twentieth Edition. Wayne, PA: CLSI; June 2010. The compounds of the present disclosure were tested for antimicrobial activity. The Compounds 1-122 were run against Eschericia coli (E. coli) strain ATCC25922 and against Staphylococcus aureus (S. aureus) 11540 strain using a standard microdilution assay to determine minimum inhibitory concentrations (MICs). […] It will be recognized by one skilled in the art that the compounds can be assessed against other bacterial organisms and that the presentation of data for activity against Eschericia coli and Staphylococcus aureus are illustrative and in no way is intended to limit the scope of the present disclosure. The compounds of the present disclosure can be assayed against a range of other microorganisms depending upon the performance activity desired to be gathered. Furthermore, the “+” and “−” representation and the selection of a cutoff value of 16 micrograms/mL is also illustrative and in no way is intended to limit the scope of the present disclosure.
In general terms: Broth dilution looks for growth in wells or tubes with falling amounts of substance.

The test system of experiment [2] is Eschericia coli (E. coli) strain ATCC25922. The experiment can be described thus: standard microdilution assay to determine minimum inhibitory concentrations (MICs), E. coli. In kind it is cell-based. The settings on record: Escherichia coli. The procedure: as §1

Where only a bound is given, the exact number is not on record here.

As a reminder, the MIC is the smallest concentration in the dilution series that meets the test's criterion for growth inhibition. Lower therefore signals inhibition by little substance.

Turning to `C[C@H](NCC[C@H](C)SC(=N)N)c1ccc(-n2cc3cc(-c4cc(CCC[C@@H](N)C5CC5)cc(Cl)c4F)[nH]c3nc2=O)cc1` [Compound 11], the MIC in experiment [1] and in experiment [2] was ≤ 16 µg/mL each time.
Turning to `C[C@H](N)CCCN1C(c2cc3cn(-c4ccc([C@@H]5CCC[C@@H](CCSC(=N)N)N5)cc4)c(=O)nc3[nH]2)C[C@H]2CCCC[C@@H]21` (stereo partly shown) [Compound 53], the minimal inhibitory concentration (MIC) in experiment [1] and in experiment [2] was ≤ 16 µg/mL throughout.
With `CC(C[C@@H]1CCC[C@@H](c2ccc(-n3cc4cc(-c5cc(CCC[C@H](C)N)cc(Cl)c5F)[nH]c4nc3=O)cc2)N1)SC(=N)N` (stereo partly shown) [Compound 78], the MIC in experiment [1] and in experiment [2] was ≤ 16 µg/mL throughout.
For the compound `COC[C@H](N)CCCc1cc(Cl)c(F)c(-c2cc3cn(-c4ccc([C@@H]5CCC[C@@H](CCSC(=N)N)N5)cc4)c(=O)nc3[nH]2)c1` [Compound 80], the MIC in experiment [1] and in experiment [2] was ≤ 16 µg/mL in each case.
In the case of `C[C@H](N)CCCc1cc(Cl)c(F)c(-c2cc3cn(-c4ccc([C@@H]5CCC(O)[C@@H](CCSC(=N)N)N5C)cc4)c(=O)nc3[nH]2)c1` (stereo partly shown) [Compound 106], the minimal inhibitory concentration (MIC) in experiment [1] and in experiment [2] was ≤ 16 µg/mL each time.
With `C=CCCN1[C@H](CCSC(=N)N)CCC[C@H]1c1ccc(-n2cc3cc(-c4cc(CCC[C@H](C)N)cc(Cl)c4F)[nH]c3nc2=O)cc1` [Compound 94], the MIC in experiment [1] and in experiment [2] was ≤ 16 µg/mL each time.
In the case of `C[C@H](O)CCCc1cc(Cl)c(F)c(-c2cc3cn(-c4ccc([C@@H]5CCC[C@@H](CCSC(=N)N)N5)cc4)c(=O)nc3[nH]2)c1` [Compound 28], the minimal inhibitory concentration (MIC) in experiment [1] and in experiment [2] was ≤ 16 µg/mL throughout.
Consider `N=C(N)SCC[C@@H]1CCC[C@@H](c2ccc(-n3cc4cc(C5C[C@@H](OCc6ccccc6)CN5)[nH]c4nc3=O)cc2)N1` (stereo partly shown) [Compound 49], for which the MIC in experiment [1] and in experiment [2] was ≤ 16 µg/mL each time.
Take `C[C@@H](N)CCCN1CC(C)(C)CC1c1cc2cn(-c3ccc([C@@H]4CCC[C@@H](CCSC(=N)N)N4)cc3)c(=O)nc2[nH]1` (stereo partly shown) [Compound 74]: the MIC in experiment [1] and in experiment [2] was ≤ 16 µg/mL each time.
Take `C[C@H](N)CCCc1cc(Cl)c(F)c(-c2cc3cn(-c4ccc([C@H]5C[C@H](CCSC(=N)N)CCN5C)cc4)c(=O)nc3[nH]2)c1` [Compound 111]: the MIC in experiment [1] and in experiment [2] was ≤ 16 µg/mL throughout.
`C[C@H](NCCCSC(=N)N)c1ccc(-n2cc3cc(-c4cc(CCC[C@@H](N)C5CC5)cc(Cl)c4F)[nH]c3nc2=O)cc1` [Compound 27]: the MIC in experiment [1] and in experiment [2] was ≤ 16 µg/mL throughout.
Take `C[C@@H](N)CCCN1CC(F)(F)CC1c1cc2cn(-c3ccc([C@@H]4CCC[C@@H](CCSC(=N)N)N4)cc3)c(=O)nc2[nH]1` (stereo partly shown) [Compound 71]: the minimum inhibitory concentration (MIC) in experiment [1] and in experiment [2] was ≤ 16 µg/mL throughout.
Take `C[C@H](N)CCCc1cc(Cl)c(F)c(-c2cc3cn(-c4ccc([C@H]5C[C@H](CCSC(=N)N)CN5)cc4)c(=O)nc3[nH]2)c1` [Compound 114]: the minimum inhibitory concentration (MIC) in experiment [1] and in experiment [2] was ≤ 16 µg/mL each time.
With `C[C@H](N)CCCc1cc(-c2cc3cn(-c4ccc([C@@H]5CCC[C@@H](CCSC(=N)N)N5)cc4)c(=O)nc3[nH]2)cc(C2CC2)c1` [Compound 99], the MIC in experiment [1] and in experiment [2] was ≤ 16 µg/mL each time.
Turning to `C[C@H](N)CCCN1C(c2cc3cn(-c4ccc([C@@H]5CCC[C@@H](CCSC(=N)N)N5)cc4)c(=O)nc3[nH]2)C[C@@H]2CCCC[C@@H]21` (stereo partly shown) [Compound 62], the minimal inhibitory concentration (MIC) in experiment [1] and in experiment [2] was ≤ 16 µg/mL in each case.
On to `CC(Br)CCN1[C@H](CCSC(=N)N)CCC[C@H]1c1ccc(-n2cc3cc(-c4cc(CCC[C@H](C)N)cc(Cl)c4F)[nH]c3nc2=O)cc1` (stereo partly shown) [Compound 95], for which the minimum inhibitory concentration (MIC) in experiment [1] and in experiment [2] was ≤ 16 µg/mL throughout.
As for `C[C@H](N)Cc1cc(Cl)c(F)c(-c2cc3cn(-c4ccc([C@@H]5CCC[C@@H](CCSC(=N)N)N5)cc4)c(=O)nc3[nH]2)c1` [Compound 23], the MIC in experiment [1] and in experiment [2] was ≤ 16 µg/mL in each case.
`CSC(=N)NCC[C@@H]1CCC[C@@H](c2ccc(-n3cc4cc(-c5cc(CCC[C@H](C)N)cc(Cl)c5F)[nH]c4nc3=O)cc2)N1` [Compound 120]: the MIC in experiment [1] and in experiment [2] was ≤ 16 µg/mL in each case.
In the case of `C/N=C(\NC)SCC[C@@H]1CCC[C@@H](c2ccc(-n3cc4cc(-c5cc(CCC[C@H](C)N)cc(Cl)c5F)[nH]c4nc3=O)cc2)N1` [Compound 43], the MIC in experiment [1] and in experiment [2] was ≤ 16 µg/mL throughout.
As for `CCSC(=N)NCC[C@@H]1CCC[C@@H](c2ccc(-n3cc4cc(-c5cc(CCC[C@H](C)N)cc(Cl)c5F)[nH]c4nc3=O)cc2)N1` [Compound 118], the MIC in experiment [1] and in experiment [2] was ≤ 16 µg/mL each time.
In the case of `CC(C)c1cc(CCC[C@H](C)N)cc(-c2cc3cn(-c4ccc([C@@H]5CCC[C@@H](CCSC(=N)N)N5)cc4)c(=O)nc3[nH]2)c1F` [Compound 84], the MIC in experiment [1] and in experiment [2] was ≤ 16 µg/mL each time.
On to `CCc1cc(CCC[C@H](C)N)cc(-c2cc3cn(-c4ccc([C@@H]5CCC[C@@H](CCSC(=N)N)N5)cc4)c(=O)nc3[nH]2)c1` [Compound 87], for which the minimum inhibitory concentration (MIC) in experiment [1] and in experiment [2] was ≤ 16 µg/mL throughout.
On to `CCc1c(F)c(CCC[C@H](C)N)cc(-c2cc3cn(-c4ccc([C@@H]5CCC[C@@H](CCSC(=N)N)N5)cc4)c(=O)nc3[nH]2)c1F` [Compound 104], for which the MIC in experiment [1] and in experiment [2] was ≤ 16 µg/mL each time.
`C[C@@H](N)CCc1cc(Cl)c(F)c(-c2cc3cn(-c4ccc([C@@H]5CCC[C@@H](CCSC(=N)N)N5)cc4)c(=O)nc3[nH]2)c1` [Compound 29]: the MIC in experiment [1] and in experiment [2] was ≤ 16 µg/mL in each case.
Take `C[C@H](N)CCCc1cc(Cl)c(F)c(-c2cc3cn(-c4ccc([C@@H]5CC=C[C@@H](CCSC(=N)N)N5)cc4)c(=O)nc3[nH]2)c1` [Compound 16]: the minimum inhibitory concentration (MIC) in experiment [1] and in experiment [2] was ≤ 16 µg/mL in each case.
On to `C[C@H](N)CCCc1cc(Cl)c(F)c(-c2cc3cn(-c4ccc([C@@H]5CCC[C@@H](CCSC(=N)N)N5CCCSC(=N)N)cc4)c(=O)nc3[nH]2)c1` [Compound 19], for which the MIC in experiment [1] and in experiment [2] was ≤ 16 µg/mL throughout.
Regarding `C[C@H](N)CCCc1cc(Cl)c(F)c(-c2cc3cn(-c4ccc([C@@H]5CCC[C@@H](CCSC(=N)N)N5CCCF)cc4)c(=O)nc3[nH]2)c1` [Compound 4], the MIC in experiment [1] and in experiment [2] was ≤ 16 µg/mL in each case.
As for `C[C@H](N)CCCc1cc(Cl)c(F)c(-c2cc3cn(-c4ccc([C@@H]5CCC[C@@H](CCSC(=N)N)N5CCF)cc4)c(=O)nc3[nH]2)c1` [Compound 98], the MIC in experiment [1] and in experiment [2] was ≤ 16 µg/mL in each case.
Consider `C[C@@H](N)CCCN1C[C@H](N)CC1c1cc2cn(-c3ccc([C@@H]4CCC[C@@H](CCSC(=N)N)N4)cc3)c(=O)nc2[nH]1` (stereo partly shown) [Compound 65], for which the MIC in experiment [1] and in experiment [2] was ≤ 16 µg/mL in each case.
For the compound `C[C@@H](N)CCCN1C[C@H](OCc2ccccc2)CC1c1cc2cn(-c3ccc([C@@H]4CCC[C@@H](CCSC(=N)N)N4)cc3)c(=O)nc2[nH]1` (stereo partly shown) [Compound 63], the minimal inhibitory concentration (MIC) in experiment [1] and in experiment [2] was ≤ 16 µg/mL throughout.
Take `N=C(N)SCC[C@@H]1CCC[C@@H](c2ccc(-n3cc4cc(-c5cc(CCC[C@@H](N)CO)cc(Cl)c5F)[nH]c4nc3=O)cc2F)N1` [Compound 22]: the MIC in experiment [1] and in experiment [2] was ≤ 16 µg/mL in each case.
As for `C[C@H](N)CCCc1cc(Cl)c(F)c(-c2cc3cn(-c4ccc([C@@H]5CCCC[C@@H](CCSC(=N)N)N5)cc4)c(=O)nc3[nH]2)c1` [Compound 52], the MIC in experiment [1] and in experiment [2] was ≤ 16 µg/mL throughout.
Regarding `C[C@H](N)CCCc1cc(Cl)c(F)c(-c2cc3cn(-c4ccc([C@H]5C[C@H](CCSC(=N)N)CN5CCCF)cc4)c(=O)nc3[nH]2)c1` [Compound 117], the MIC in experiment [1] and in experiment [2] was ≤ 16 µg/mL each time.
Take `COC(=O)CN1[C@H](CCSC(=N)N)CCC[C@H]1c1ccc(-n2cc3cc(-c4cc(CCC[C@H](C)N)cc(Cl)c4F)[nH]c3nc2=O)cc1` [Compound 96]: the MIC in experiment [1] and in experiment [2] was ≤ 16 µg/mL throughout.
Turning to `N=C(N)SCC[C@@H]1CCC[C@@H](c2ccc(-n3cc4cc(C5C[C@H]6CCCC[C@@H]6N5)[nH]c4nc3=O)cc2)N1` (stereo partly shown) [Compound 51], the MIC in experiment [1] and in experiment [2] was ≤ 16 µg/mL throughout.
As to `CN[C@@H]1CC(c2cc3cn(-c4ccc([C@@H]5CCC[C@@H](CCSC(=N)N)N5)cc4)c(=O)nc3[nH]2)N(CCC[C@@H](C)N)C1` (stereo partly shown) [Compound 66], the MIC in experiment [1] and in experiment [2] was ≤ 16 µg/mL each time.
Consider `C[C@H](N)CCCN1CC=C(c2cc3cn(-c4ccc([C@@H]5CCC[C@@H](CCSC(=N)N)N5)cc4)c(=O)nc3[nH]2)C1` [Compound 75], for which the minimal inhibitory concentration (MIC) in experiment [1] and in experiment [2] was ≤ 16 µg/mL throughout.
As for `C[C@H](N)CCCc1cc(-c2cc3cn(-c4ccc([C@@H]5CCC[C@@H](CCSC(=N)N)N5)cc4)c(=O)nc3[nH]2)cc(C2CCCC2)c1` [Compound 100], the minimal inhibitory concentration (MIC) in experiment [1] and in experiment [2] was ≤ 16 µg/mL in each case.

For the origin of these results see patent US12234238B2, “Antimicrobial compounds and methods of making and using the same” (BIOVERSYS AG, priority 2017, dated 2025).
